Laboratory results from US6645917B2, “Composition for hybrid seed production, process for the preparation of such composition and use thereof” (Council of Scientific and Industrial Research, priority 2002, dated 2003).
Read-outs that look alike come from different tables or passages of the source.

Legend:
wheat [1] = conditions: cited from earlier work
wheat plants = test: Spray of chemicals in combinations and as individual molecules on wheat plants (Table 3); type: in vivo
Method: The effects of the composition with varied concentration of compound 1 and 2 were evaluated for two crops years. The aqueous solution of the compositions were sprayed on the wheat plants when the Spike length of 7-12 mm. i.e. growth of 20-22 of Zadoks scale, reached between 40-50 days after germination.
In a future of the present invention the calculation of male/female sterility is based on number of seeds and is done as per formula given below:
Male Sterility (%)=(Untreated Control−Bagged Spikes×100/Untreated Control
Female Sterility (%)=(Untreated Control−Bagged Spikes)×100/Untreated Control
The chemical formulation can be used at a rate of 1.8 kg/ha or below (following male: female ratio of 1:2) depending upon genotypes used, date of planting and growth stage. The female lines were sprayed with the chemical combination at the appropriate growth stage and concentration. The spike of 7-12 mm i.e. growth stage 20-22 of Zadoks scale (Zadoks J V, Chang T T and Konzak C F 1974. Weed Research 14: 415421) was ideal for generating effective male sterility in spring wheat. This stage is reached between 40-50 days after germination at optimum time of sowing in most of the genotypes. The date of spray varied depending upon the genotype used. A high volume spray pump may be used so as to cover the complete female plant.

wheat [2] = test system: wheat; design: Effective dose: unit not given beside the values; conditions: cited from earlier work; for Female sterility / Germination (%) / Max. seed shriveling (Scale 1-5) / Seed setting: at effective dose; for Female sterility / Germination (%) / Max. seed shriveling (Scale 1-5) / Seed setting / Effective dose: 7-8 mm spike length; for Effective dose: minimum effective dose for complete male sterility
[3] = wheat, side effects on plant and seed
[4] = at minimum effective dose for complete male sterility

O=C(O)C1CNC1 [WL 84811]
Sterility (optimum treatment) Female (wheat [1]; wheat, optimum treatment): Very | Sterility (optimum treatment) Male (wheat [1]; wheat, optimum treatment): Nearly | Remarks (wheat [1]; [3]): Toxic residues in F1

CC(Cl)(CCl)C(=O)[O-].[Na+] (stereo not shown) [Mendok]
Remarks (wheat [1]; in vivo): Severe plant damage, | Sterility (optimum treatment) Female (wheat [1]; in vivo): Significant | Sterility (optimum treatment) Male (wheat [1]; wheat, optimum treatment): Poor

Cc1cc(=O)c(C(=O)[O-])nn1-c1ccc(Cl)cc1.[K+] [Hybrex]
Remarks (wheat [1]; in vivo): Risk of damage | Sterility (optimum treatment) Female (wheat [1]; in vivo): Slight | Sterility (optimum treatment) Male (wheat [1]; wheat, optimum treatment): High

CC(Cl)(Cl)C(=O)O [Dalapon]
Sterility (optimum treatment) Female (wheat [1]; wheat, optimum treatment): Severe | Sterility (optimum treatment) Male (wheat [1]; wheat, optimum treatment): Partial | Remarks (wheat [1]; [3]): Severe plant damage

Cc1cc(=O)c(C(=O)[O-])nn1-c1ccc(Cl)cc1.[K+] [CH9701, potassium 1-[4-chlorophenyl]-1,4 dihydro-6-methyl-4-oxopyridazine-3-carboxylate]
Female sterility (wheat plants): high female sterility | damage to florets (wheat plants): damage to florets | male sterility (wheat plants): complete male sterility | seed set (wheat plants): low seed set | female sterility (CH9701 compared with CH9832) (wheat [2]; [4]): higher | seed germination (CH9701 compared with CH9832) (wheat [2]; [4]): comparable | seed shriveling (CH9701 compared with CH9832) (wheat [2]; [4]): higher | Female sterility (wheat [2]; variety PBW343): 88.3 | Germination (%) (wheat [2]; variety PBW343): 95% | Max. seed shriveling (Scale 1-5) (wheat [2]; variety PBW343): 3 | Seed setting (wheat [2]; variety PBW343): 20.0 | Effective dose (wheat [2]; variety PBW343): 500 | Female sterility (wheat [2]; variety WH542): 90.7 | Germination (%) (wheat [2]; variety WH542): 85% | Max. seed shriveling (Scale 1-5) (wheat [2]; variety WH542): 2 | Seed setting (wheat [2]; variety WH542): 56.7 | Effective dose (wheat [2]; variety WH542): 250

Cc1cc(C)n(-c2ccc(Cl)cc2)c(=O)c1C(=O)[O-].[Na+] [RH-531]
Sterility (optimum treatment) Female (wheat [1]; wheat, optimum treatment): Significant | Sterility (optimum treatment) Male (wheat [1]; wheat, optimum treatment): High | Remarks (wheat [1]; [3]): Inhibit veg. Growth

C=C1C[C@]23C[C@@]1(O)CC[C@H]2[C@@]12C=C[C@H](O)[C@@](C)(C(=O)O1)[C@H]2[C@@H]3C(=O)O [Gibberellic acid]
Sterility (optimum treatment) Male (wheat [1]; wheat, optimum treatment): Poor

O=P(O)(O)CCCl [Ethephon]
Sterility (optimum treatment) Female (wheat [1]; wheat, optimum treatment): Significant | Sterility (optimum treatment) Male (wheat [1]; wheat, optimum treatment): High | Remarks (wheat [1]; [3]): Height and seed size

Cc1cc(=O)c(C(=O)[O-])nn1-c1ccc(F)c(Cl)c1.[K+] [CH9832, potassium 1-[4-fluoro, 3-chlorophenyl]-1,4 dihydro6-methyl-4-oxopyridazine-3-carboxylate]
Female sterility (wheat plants): low female sterility | damage to florets (wheat plants): no damage to florets | male sterility (wheat plants): complete male sterility | seed set (wheat plants): low seed set | seed germination (CH9701 compared with CH9832) (wheat [2]; [4]): comparable | seed setting (CH9832 compared with CH9701) (wheat [2]; [4]): numerically higher | Female sterility (wheat [2]; variety PBW343): 40.2 | Germination (%) (wheat [2]; variety PBW343): 90% | Max. seed shriveling (Scale 1-5) (wheat [2]; variety PBW343): 2 | Seed setting (wheat [2]; variety PBW343): 49.0 | Effective dose (wheat [2]; variety PBW343): 500 | Female sterility (wheat [2]; variety WH542): 10.7 | Germination (%) (wheat [2]; variety WH542): 65% | Max. seed shriveling (Scale 1-5) (wheat [2]; variety WH542): 2 | Seed setting (wheat [2]; variety WH542): 65.5 | Effective dose (wheat [2]; variety WH542): 500

COc1nc(=O)n(-c2ccc(Cl)cc2)c(=O)[nH]1.OCCN(CCO)CCO [DPX 3778]
Sterility (optimum treatment) Female (wheat [1]; wheat, optimum treatment): Sight | Sterility (optimum treatment) Male (wheat [1]; wheat, optimum treatment): High | Remarks (wheat [1]; [3]): Shorter plant, leaf
